The subject of test [1] is PC-3. The test is described as follows: Cytotoxicity against human PC-3 cells measured after 72 hrs by MTT assay. The class given is functional, cell-based. The note with it: PC-3, 72 h. For orientation: Formazan colour is commonly taken as a measure of viable cells.
The subject of test [2] is Rec1. The test is described as follows: Cytotoxicity against human REC1 cells at 30 uM assessed as cell proliferation rate measured after 72 hrs by MTT assay relative to control. Type of test: functional.
The subject of test [3] is HCT-116. Description: Cytotoxicity against human HCT-116 cells measured after 72 hrs by MTT assay. Type of test: functional, cell-based. The note with it: HCT-116, 72 h.
Test [4] relates to NCI-H82. Description: Cytotoxicity against human NCI-H82 cells measured after 72 hrs by MTT assay. Type of test: functional, cell-based. The note with it: NCI-H82, 72 h.
The test system of test [5] is PC-3. Description: Cytotoxicity against human PC-3 cells at 30 uM assessed as cell proliferation rate measured after 72 hrs by MTT assay relative to control. Type of test: functional.
For test [6], the system named is HCT-116. Description: Cytotoxicity against human HCT-116 cells at 30 uM assessed as cell proliferation rate measured after 72 hrs by MTT assay relative to control. The class given is functional.
Test [7] has as its system NCI-H82. Description: Cytotoxicity against human NCI-H82 cells at 30 uM assessed as cell proliferation rate measured after 72 hrs by MTT assay relative to control. Type of test: functional.
Test [8] concerns CAKI-1. Description: Cytotoxicity against human CAKI-1 cells at 30 uM assessed as cell proliferation rate measured after 72 hrs by MTT assay relative to control. Type of test: functional.
Test [9] concerns TC-32. The test is described as follows: Cytotoxicity against human TC-32 cells measured after 72 hrs by MTT assay. Type of test: functional, cell-based. The note with it: TC-32, 72 h.
Test [10] deals with TC-32. Description: Cytotoxicity against human TC-32 cells at 30 uM assessed as cell proliferation rate measured after 72 hrs by MTT assay relative to control. The class given is functional.
The test system of test [11] is A673. The test is described as follows: Cytotoxicity against human A673 cells at 30 uM assessed as cell proliferation rate measured after 72 hrs by MTT assay relative to control. The class given is functional.
In test [12] the test system is NCI-H69. Description: Cytotoxicity against human NCI-H69 cells at 30 uM assessed as cell proliferation rate measured after 72 hrs by MTT assay relative to control. Type of test: functional.
The test system of test [13] is MCF7. The test is described as follows: Cytotoxicity against human MCF7 cells measured after 72 hrs by MTT assay. The class given is functional, cell-based. To be noted: MCF7, 72 h.
Test [14] concerns NCI-H69. Description: Cytotoxicity against human NCI-H69 cells measured after 72 hrs by MTT assay. Type of test: functional, cell-based. The note with it: NCI-H69, 72 h.
The test system of test [15] is CAKI-1. Description: Cytotoxicity against human CAKI-1 cells measured after 72 hrs by MTT assay. The note with it: CAKI-1, 72 h. Type of test: functional, cell-based.
The subject of test [16] is A673. The test is described as follows: Cytotoxicity against human A673 cells measured after 72 hrs by MTT assay. The class given is functional, cell-based. The note with it: A673, 72 h.
In test [17] the test system is Rec1. Description: Cytotoxicity against human REC1 cells measured after 72 hrs by MTT assay. The class given is functional, cell-based. The note with it: Rec1, 72 h.
Test [18] in a line: Cytotoxicity against human 6647 cells measured after 72 hrs by MTT assay. Type of test: functional, cell-based. The note with it: Homo sapiens, 6647, 72 h.
For test [19], the system named is 786-0. The test is described as follows: Cytotoxicity against human 786-0 cells at 30 uM assessed as cell proliferation rate measured after 72 hrs by MTT assay relative to control. The class given is functional.
For test [20], the system named is SK-N-MC. Description: Cytotoxicity against human SK-N-MC cells measured after 72 hrs by MTT assay. Type of test: functional, cell-based.
Test [21] relates to 786-0. The test is described as follows: Cytotoxicity against human 786-0 cells measured after 72 hrs by MTT assay. Type of test: functional, cell-based. To be noted: 786-0, 72 h.
The test system of test [22] is IGROV-1. The test is described as follows: Cytotoxicity against human IGROV-1 cells at 30 uM assessed as cell proliferation rate measured after 72 hrs by MTT assay relative to control. Type of test: functional.
Test [23] is described as follows: (§1) Cytotoxicity against human TC71 cells at 30 uM assessed as cell proliferation rate measured after 72 hrs by MTT assay relative to control. The class given is functional. To be noted: TC-71.
Test [24] deals with IGROV-1. Description: Cytotoxicity against human IGROV-1 cells measured after 72 hrs by MTT assay. The class given is functional, cell-based. To be noted: IGROV-1, 72 h.
The subject of test [25] is MCF7. The test is described as follows: Cytotoxicity against human MCF7 cells at 30 uM assessed as cell proliferation rate measured after 72 hrs by MTT assay relative to control. Type of test: functional.
Test [26] is described as follows: Cytotoxicity against human TC71 cells measured after 72 hrs by MTT assay. The class given is functional, cell-based. The note with it: TC-71, 72 h.
Test [27] can be described thus: (§2) Cytotoxicity against human 6647 cells at 30 uM assessed as cell proliferation rate measured after 72 hrs by MTT assay relative to control. Type of test: functional.
In test [28] the test system is SK-N-MC. Description: Cytotoxicity against human SK-N-MC cells at 30 uM assessed as cell proliferation rate measured after 72 hrs by MTT assay relative to control. Type of test: functional.
Another test relates to TC-71. Described as §1. The class given is functional.
In the next test the test system is 6647. Described as §2. The class given is functional.

Broadly, the IC50 is the midpoint of a concentration-inhibition curve. Low values mean greater potency, high ones weaker potency.

In the case of `NCC(=O)Nc1ccc(-n2nc(C(F)(F)F)cc2-c2ccc3c(ccc4ccccc43)c2)cc1` [AR-12], the IC50 with PC-3 [1] was 6.5 µM; in the test on HCT-116 [3], 2.7 µM; in the test on NCI-H82 [4], 4 µM; with TC-32 [9], 2 µM; in the test on MCF7 [13] it was 2.8 µM; in the test on NCI-H69 [14], 1.8 µM. For the same compound, the IC50 in the test with CAKI-1 [15] worked out at 5 µM; with A673 [16], 2.1 µM; with Rec1 [17] it was 3.8 µM; in [18] it was 0.3 µM; in the test on SK-N-MC [20] it was 6 µM; in the test on 786-0 [21], 2.9 µM. Further, the results for the IC50 (in the test on IGROV-1 [24]; in test [26]) were 3.7 µM and 0.8 µM, respectively. Further, the Emax at 30 µM was 90% in the test on Rec1 [2]; 80% in the test on PC-3 [5]; 95% with HCT-116 [6]; 90% in the test on NCI-H82 [7]; 95% with CAKI-1 [8]; 75% in the test with TC-32 [10]. Further, the Emax at 30 µM with A673 [11] stood at 95%; with NCI-H69 [12], 80%; in the test on 786-0 [19], 80%; in the test with IGROV-1 [22], 91%; in test [23], 95%; in the test with MCF7 [25], 89%. The Emax at 30 µM in test [27] is 89%; in the test on SK-N-MC [28] it was 81%.
For `O=C(O)[C@]1(Cc2cccc(Nc3nccs3)n2)CC[C@@H](Oc2cccc(Cl)c2F)CC1` [MK-5108], the IC50 in the test on PC-3 [1] was over 30 µM; in the test on HCT-116 [3], 16.3 µM; in the test on NCI-H82 [4], over 30 µM; in the test with TC-32 [9], 5.6 µM; in the test with MCF7 [13], over 30 µM; in the test on NCI-H69 [14] it was over 30 µM. Further, the IC50 with CAKI-1 [15] is over 30 µM; with A673 [16], over 30 µM; in the test on Rec1 [17] it was over 30 µM; in test [18], 0.6 µM; in the test with SK-N-MC [20], over 30 µM; with 786-0 [21], over 30 µM. The IC50 with IGROV-1 [24] is over 30 µM; in [26], 1.6 µM. Further, the Emax at 30 µM in the test with HCT-116 [6] was 40%; in the test with TC-32 [10] it was -59%. The Emax in the test with TC-71 is 70%; in the test with 6647, 82%.

The values above are taken from ChEMBL document CHEMBL5036349, “Development of potent dual PDK1/AurA kinase inhibitors for cancer therapy: Lead-optimization, structural insights, and ADME-Tox profile” (Eur J Med Chem, 2021).
